Source: patent US8541460B2, “PDK-1/Akt signaling inhibitors” (The Ohio State University, priority 2003, dated 2013)

How the values were obtained:
Type in all cases: cell-based
A498 = experiment: NCI DTP cell line screen (SRB), Renal Cancer
Description: (§1) Screening of compounds 70 and 71 against several cancer cell lines The human tumor cell lines of the cancer screening panel are grown in RPMI 1640 medium containing 5% fetal bovine serum and 2 mM L-glutamine. For a typical screening experiment, cells are inoculated into 96 well microtiter plates in 100 μL at plating densities ranging from 5,000 to 40,000 cells/well depending on the doubling time of individual cell lines. After cell inoculation, the microtiter plates are incubated at 37° C., 5% CO2, 95% air and 100% relative humidity for 24 h prior to addition of experimental drugs.
(§2) After 24 h, two plates of each cell line are fixed in situ with TCA, to represent a measurement of the cell population for each cell line at the time of drug addition (Tz). Experimental drugs are solubilized in dimethyl sulfoxide at 400-fold the desired final maximum test concentration and stored frozen prior to use. At the time of drug addition, an aliquot of frozen concentrate is thawed and diluted to twice the desired final maximum test concentration with complete medium containing 50 μg/ml gentamicin. Additional four, 10-fold or ½ log serial dilutions are made to provide a total of five drug concentrations plus control. Aliquots of 100 μl of these different drug dilutions are added to the appropriate microtiter wells already containing 100 μl of medium, resulting in the required final drug concentrations.
(§3) Following drug addition, the plates are incubated for an additional 48 h at 37° C., 5% CO2, 95% air, and 100% relative humidity. For adherent cells, the assay is terminated by the addition of cold TCA. Cells are fixed in situ by the gentle addition of 50 μl of cold 50% (w/v) TCA (final concentration, 10% TCA) and incubated for 60 minutes at 4° C. The supernatant is discarded, and the plates are washed five times with tap water and air dried. Sulforhodamine B (SRB) solution (100 μl) at 0.4% (w/v) in 1% acetic acid is added to each well, and plates are incubated for 10 minutes at room temperature. After staining, unbound dye is removed by washing five times with 1% acetic acid and the plates are air dried. Bound stain is subsequently solubilized with 10 mM trizma base, and the absorbance is read on an automated plate reader at a wavelength of 515 nm. For suspension cells, the methodology is the same except that the assay is terminated by fixing settled cells at the bottom of the wells by gently adding 50 μl of 80% TCA (final concentration, 16% TCA). Using the seven absorbance measurements [time zero, (Tz), control growth, (C), and test growth in the presence of drug at the five concentration levels (Ti)], the percentage growth is calculated at each of the drug concentrations levels. Percentage growth inhibition is calculated as: [(Ti−Tz)/(C−Tz)]×100 for concentrations for which Ti>/=Tz [(Ti−Tz)/Tz]×100 for concentrations for which Ti<Tz
(§4) Three dose response parameters are calculated for each experimental agent. […] The drug concentration resulting in total growth inhibition (TGI) is calculated from Ti=Tz. […] Values are calculated for each of these three parameters if the level of activity is reached; however, if the effect is not reached or is exceeded, the value for that parameter is expressed as greater or less than the maximum or minimum concentration tested.
(§5) The methods described were used to test compounds 70 and 71 on a panel of sixty cell lines under a screening service provided by the Developmental Therapeutics Program at the National Institutes of Health. Shown in FIG. 1C are 1, RPMI-8226 leukemia cells; 2; NCI-H322M non-small cell lung cancer cells; 3, HT29 colon cancer cells; 4, U251 CNS cancer cells; 5, SK-MEL-28 melanoma cancer cells; 6, SK-OV-3 ovarian cancer cells; 7, RXF 393 renal cancer cells; 8, PC-3 prostate cancer cells; 9, MDA-MB-231 breast cancer cells.

SN12C = experiment: NCI DTP cell line screen (SRB), Renal Cancer
Description: as §1, §2, §3, §4, §5

TK-10 = experiment: NCI DTP cell line screen (SRB), Renal Cancer
Description: as §1, §2, §3, §4, §5

T-47D = experiment: NCI DTP cell line screen (SRB), Breast Cancer
Description: as §1, §2, §3, §4, §5

MDA-MB-231/ATCC = experiment: NCI DTP cell line screen (SRB), Breast Cancer
Description: as §1, §2, §3, §4, §5

HS 578T = experiment: NCI DTP cell line screen (SRB), Breast Cancer; conditions: HS 578T
Description: as §1, §2, §3, §4, §5

NCI/ADR-RES = experiment: NCI DTP cell line screen (SRB), Breast Cancer
Description: as §1, §2, §3, §4, §5

SK-MEL-28 = experiment: NCI DTP cell line screen (SRB), Melanoma
Description: as §1, §2, §3, §4, §5

[1] = read-out: LC50 (the source's name)

N=C(N)Nc1ccc(-n2nc(C(F)(F)F)cc2-c2ccc3c(ccc4ccccc43)c2)cc1 [Compound 71, 4-[5-(2-Phenanthrenyl)-3-(trifluoromethyl)-1H-pyrazol-1-yl]-phenyl-guanidine]
GI50 (A498): 16500 nM | TGI (A498): 4.35E−05 | Mean Optical Densities (A498; Log10 Concentration −4.0): 0.540 | Percent Growth (A498; Log10 Concentration −4.0): −43% | Mean Optical Densities (A498; Log10 Concentration −5.0): 1.903 | Percent Growth (A498; Log10 Concentration −5.0): 76% | Mean Optical Densities (A498; Log10 Concentration −6.0): 1.869 | Percent Growth (A498; Log10 Concentration −6.0): 73% | Mean Optical Densities (A498; Log10 Concentration −7.0): 2.087 | Percent Growth (A498; Log10 Concentration −7.0): 91% | Mean Optical Densities (A498; Log10 Concentration −8.0): 2.413 | Percent Growth (A498; Log10 Concentration −8.0): 116% | CC50 (A498; [1]): > 100000 nM | GI50 (SN12C): 1570 nM | TGI (SN12C): 2.91E−06 | Mean Optical Densities (SN12C; Log10 Concentration −4.0): 0.224 | Percent Growth (SN12C; Log10 Concentration −4.0): −62% | Mean Optical Densities (SN12C; Log10 Concentration −5.0): −0.014 | Percent Growth (SN12C; Log10 Concentration −5.0): −100% | Mean Optical Densities (SN12C; Log10 Concentration −6.0): 1.045 | Percent Growth (SN12C; Log10 Concentration −6.0): 87% | Mean Optical Densities (SN12C; Log10 Concentration −7.0): 0.998 | Percent Growth (SN12C; Log10 Concentration −7.0): 78% | Mean Optical Densities (SN12C; Log10 Concentration −8.0): 1.050 | Percent Growth (SN12C; Log10 Concentration −8.0): 88% | GI50 (TK-10): 1320 nM | TGI (TK-10): 2.59E−06 | Mean Optical Densities (TK-10; Log10 Concentration −4.0): 0.245 | Percent Growth (TK-10; Log10 Concentration −4.0): −64% | Mean Optical Densities (TK-10; Log10 Concentration −5.0): −0.021 | Percent Growth (TK-10; Log10 Concentration −5.0): −100% | Mean Optical Densities (TK-10; Log10 Concentration −6.0): 0.998 | Percent Growth (TK-10; Log10 Concentration −6.0): 71% | Mean Optical Densities (TK-10; Log10 Concentration −7.0): 1.087 | Percent Growth (TK-10; Log10 Concentration −7.0): 90% | Mean Optical Densities (TK-10; Log10 Concentration −8.0): 1.032 | Percent Growth (TK-10; Log10 Concentration −8.0): 78% | CC50 (TK-10; [1]): 5090 nM | GI50 (T-47D): < 10 nM | TGI (T-47D): 1.98E−06 | Mean Optical Densities (T-47D; Log10 Concentration −4.0): 0.198 | Percent Growth (T-47D; Log10 Concentration −4.0): −53% | Mean Optical Densities (T-47D; Log10 Concentration −5.0): 0.100 | Percent Growth (T-47D; Log10 Concentration −5.0): −76% | Mean Optical Densities (T-47D; Log10 Concentration −6.0): 0.529 | Percent Growth (T-47D; Log10 Concentration −6.0): 32% | Mean Optical Densities (T-47D; Log10 Concentration −7.0): 0.578 | Percent Growth (T-47D; Log10 Concentration −7.0): 47% | Mean Optical Densities (T-47D; Log10 Concentration −8.0): 0.541 | Percent Growth (T-47D; Log10 Concentration −8.0): 36% | CC50 (T-47D; [1]): 5720 nM | TGI (MDA-MB-231/ATCC): 1.66E−06 | Mean Optical Densities (MDA-MB-231/ATCC; Log10 Concentration −4.0): 0.389 | Percent Growth (MDA-MB-231/ATCC; Log10 Concentration −4.0): −39% | Mean Optical Densities (MDA-MB-231/ATCC; Log10 Concentration −5.0): 0.015 | Percent Growth (MDA-MB-231/ATCC; Log10 Concentration −5.0): −98% | Mean Optical Densities (MDA-MB-231/ATCC; Log10 Concentration −6.0): 0.709 | Percent Growth (MDA-MB-231/ATCC; Log10 Concentration −6.0): 27% | Mean Optical Densities (MDA-MB-231/ATCC; Log10 Concentration −7.0): 0.830 | Percent Growth (MDA-MB-231/ATCC; Log10 Concentration −7.0): 78% | Mean Optical Densities (MDA-MB-231/ATCC; Log10 Concentration −8.0): 0.756 | Percent Growth (MDA-MB-231/ATCC; Log10 Concentration −8.0): 47% | GI50 (HS 578T): 1860 nM | TGI (HS 578T): 3.78E−06 | Mean Optical Densities (HS 578T; Log10 Concentration −4.0): 0.333 | Percent Growth (HS 578T; Log10 Concentration −4.0): −38% | Mean Optical Densities (HS 578T; Log10 Concentration −5.0): 0.168 | Percent Growth (HS 578T; Log10 Concentration −5.0): −69% | Mean Optical Densities (HS 578T; Log10 Concentration −6.0): 1.127 | Percent Growth (HS 578T; Log10 Concentration −6.0): 94% | Mean Optical Densities (HS 578T; Log10 Concentration −7.0): 1.165 | Percent Growth (HS 578T; Log10 Concentration −7.0): 100% | Mean Optical Densities (HS 578T; Log10 Concentration −8.0): 1.099 | Percent Growth (HS 578T; Log10 Concentration −8.0): 89% | GI50 (NCI/ADR-RES): 2640 nM | TGI (NCI/ADR-RES): 7.73E−06 | Mean Optical Densities (NCI/ADR-RES; Log10 Concentration −4.0): 0.294 | Percent Growth (NCI/ADR-RES; Log10 Concentration −4.0): −47% | Mean Optical Densities (NCI/ADR-RES; Log10 Concentration −5.0): 0.490 | Percent Growth (NCI/ADR-RES; Log10 Concentration −5.0): −12% | Mean Optical Densities (NCI/ADR-RES; Log10 Concentration −6.0): 1.874 | Percent Growth (NCI/ADR-RES; Log10 Concentration −6.0): 95% | Mean Optical Densities (NCI/ADR-RES; Log10 Concentration −7.0): 1.882 | Percent Growth (NCI/ADR-RES; Log10 Concentration −7.0): 96% | Mean Optical Densities (NCI/ADR-RES; Log10 Concentration −8.0): 1.920 | Percent Growth (NCI/ADR-RES; Log10 Concentration −8.0): 98% | CC50 (NCI/ADR-RES; [1]): > 100000 nM | GI50 (SK-MEL-28): 1560 nM | TGI (SK-MEL-28): 2.89E−06 | Mean Optical Densities (SK-MEL-28; Log10 Concentration −4.0): 0.248 | Percent Growth (SK-MEL-28; Log10 Concentration −4.0): −53% | Mean Optical Densities (SK-MEL-28; Log10 Concentration −5.0): −0.002 | Percent Growth (SK-MEL-28; Log10 Concentration −5.0): −100% | Mean Optical Densities (SK-MEL-28; Log10 Concentration −6.0): 1.367 | Percent Growth (SK-MEL-28; Log10 Concentration −6.0): 86% | Mean Optical Densities (SK-MEL-28; Log10 Concentration −7.0): 1.408 | Percent Growth (SK-MEL-28; Log10 Concentration −7.0): 90% | Mean Optical Densities (SK-MEL-28; Log10 Concentration −8.0): 1.439 | Percent Growth (SK-MEL-28; Log10 Concentration −8.0): 93%
